In patent US7858655B2, “Drug preparation comprising α-lipoic acid, ambroxol and/or inhibitors of the angiotensin-converting enzyme (ACE) and its use for the treatment of neurodegenerative diseases” (Keyneurotek Pharmaceuticals AG, priority 2004, dated 2010):
Counter-ions that a name gives are not always drawn.

Test system: neuronal cells in organotypical hippocampal tissue cuts
Assay: transient oxygen/glucose deprivation (OGD) of organotypical hippocampal tissue cuts, neuronal damage
Assay type: cell-based, rats
Conditions: for neuronal damage, % of the damaged surface area, Median / neuronal damage, % of the damaged surface area, Average Value: after standard OGD with the substance applied, cocktail = α-lipoic acid 10 μg/ml, ambroxol 10 μM, Enalapril 20 μg/ml; for neuronal damage, % of the damaged surface area, Average Value: Control OGD (vehicle) 11.70-13.98; for neuroprotective effect, reduction of the neuronal damage after OGD (in words): after transient OGD, versus standard damage
From the text: For examining the neuroprotective effect of the thiol-reactive substances, the procedure of a transient ischemia for organotypical hippocampal tissue cuts was used, which procedure was standardized in our laboratory. By such a procedure, there are obtained three-dimensional cultivated explantates having a high prediction value for subsequent clinical experiments. In those tissue cultures containing neuronal as well as non-neuronal cells, highly complex intercellular connections are maintained largely. They are of extraordinary importance for the functionality of the whole CNS. The cerebral tissue cultures are exposed to a degenerative event which results into a death of neuronal cells in analogy to clinical situations. The tissue cuts (375 μm) were prepared subsequently from the hippocampus of rats (P7). The cultivation of those cut cultures was effected on membrane inserts having a pore size of 0.02 μm. After 10 to 12 days of cultivation (37° C. in an incubator; 3.3% CO2; 98% relative air humidity), the restructuration processes within the tissue cultures were finished, and a clinical relevant neurodegenerative event was simulated on the tissue cuts by means of a transient oxygen/glucose deprivation. The effect of the substanc(es) was measured in the form of a standard damage change (vehicle application). […] There was quantified the neuronal damage after a standard OGD with and without the application of the cocktail as well as the damage by the application of the cocktail per se (optional toxicity of the substance). The damage is expressed in % of the damaged surface area. In order to obtain such figures, in each tissue cut the whole surface area was compared with the damaged surface area. […] The experiments are based on the protocol described in Example 2. In the course of the experiments shown in FIGS. […], the protective effect of the cocktail was compared with the standard damage after OGD and with the effect resulting from an application of the single substances. […] Tables […] show the relevant statistical parameters.

## Nc1c(Br)cc(Br)cc1CNC1CCC(O)CC1 (stereo not drawn) [Ambroxol, trans-4-(2-amino-3,5-dibromobenzylamino-) cyclohexane hydrochloride]
  neuronal damage, % of the damaged surface area, Median: 8.32%
  neuronal damage, % of the damaged surface area, Average Value: 10.79%
  neuroprotective effect, reduction of the neuronal damage after OGD (in words): neither α-lipoic acid nor ambroxol nor the ACE inhibitor, if applied alone, were capable of reducing the neuronal damage significantly

## O=C(O)CCCC[C@@H]1CCSS1 [α-Lipoic Acid, (R)-5-(1,2-dithiolane-3-yl-)pentanoic acid]
  neuronal damage, % of the damaged surface area, Median: 13.54%
  neuronal damage, % of the damaged surface area, Average Value: 14.82%
  neuroprotective effect, reduction of the neuronal damage after OGD (in words): neither α-lipoic acid nor ambroxol nor the ACE inhibitor, if applied alone, were capable of reducing the neuronal damage significantly

## CCOC(=O)[C@H](CCc1ccccc1)N[C@@H](C)C(=O)N1CCC[C@H]1C(=O)O [Enalapril, 1-{N-[(S)-1-Ethoxycarbonyl-3-phenylpropyl-]L-alanyl-}L-proline]
  neuronal damage, % of the damaged surface area, Median: 8.70%
  neuronal damage, % of the damaged surface area, Average Value: 11.23%
  neuroprotective effect, reduction of the neuronal damage after OGD (in words): neither α-lipoic acid nor ambroxol nor the ACE inhibitor, if applied alone, were capable of reducing the neuronal damage significantly
